We go through 1 compound from paper PMC4675670 (Science translational medicine, 2015).

For test [1], the target named is cytoplasmic prolyl-tRNA synthetase (PfcPRS, PF3D7_1213800) (Plasmodium falciparum, UniProt Q8I5R7, L482H). Description: biochemical assay on purified recombinant mutant enzyme.
Test [2] addresses cytoplasmic prolyl-tRNA synthetase (PfcPRS, PF3D7_1213800) (Plasmodium falciparum, UniProt Q8I5R7). Description: biochemical assay on purified recombinant enzyme.
The target in test [3] is human EPRS (bifunctional glutamyl-prolyl-tRNA synthetase) (Homo sapiens, UniProt P07814). Description: biochemical assay.
Chain of human EPRS (bifunctional glutamyl-prolyl-tRNA synthetase) (P07814 whole entry): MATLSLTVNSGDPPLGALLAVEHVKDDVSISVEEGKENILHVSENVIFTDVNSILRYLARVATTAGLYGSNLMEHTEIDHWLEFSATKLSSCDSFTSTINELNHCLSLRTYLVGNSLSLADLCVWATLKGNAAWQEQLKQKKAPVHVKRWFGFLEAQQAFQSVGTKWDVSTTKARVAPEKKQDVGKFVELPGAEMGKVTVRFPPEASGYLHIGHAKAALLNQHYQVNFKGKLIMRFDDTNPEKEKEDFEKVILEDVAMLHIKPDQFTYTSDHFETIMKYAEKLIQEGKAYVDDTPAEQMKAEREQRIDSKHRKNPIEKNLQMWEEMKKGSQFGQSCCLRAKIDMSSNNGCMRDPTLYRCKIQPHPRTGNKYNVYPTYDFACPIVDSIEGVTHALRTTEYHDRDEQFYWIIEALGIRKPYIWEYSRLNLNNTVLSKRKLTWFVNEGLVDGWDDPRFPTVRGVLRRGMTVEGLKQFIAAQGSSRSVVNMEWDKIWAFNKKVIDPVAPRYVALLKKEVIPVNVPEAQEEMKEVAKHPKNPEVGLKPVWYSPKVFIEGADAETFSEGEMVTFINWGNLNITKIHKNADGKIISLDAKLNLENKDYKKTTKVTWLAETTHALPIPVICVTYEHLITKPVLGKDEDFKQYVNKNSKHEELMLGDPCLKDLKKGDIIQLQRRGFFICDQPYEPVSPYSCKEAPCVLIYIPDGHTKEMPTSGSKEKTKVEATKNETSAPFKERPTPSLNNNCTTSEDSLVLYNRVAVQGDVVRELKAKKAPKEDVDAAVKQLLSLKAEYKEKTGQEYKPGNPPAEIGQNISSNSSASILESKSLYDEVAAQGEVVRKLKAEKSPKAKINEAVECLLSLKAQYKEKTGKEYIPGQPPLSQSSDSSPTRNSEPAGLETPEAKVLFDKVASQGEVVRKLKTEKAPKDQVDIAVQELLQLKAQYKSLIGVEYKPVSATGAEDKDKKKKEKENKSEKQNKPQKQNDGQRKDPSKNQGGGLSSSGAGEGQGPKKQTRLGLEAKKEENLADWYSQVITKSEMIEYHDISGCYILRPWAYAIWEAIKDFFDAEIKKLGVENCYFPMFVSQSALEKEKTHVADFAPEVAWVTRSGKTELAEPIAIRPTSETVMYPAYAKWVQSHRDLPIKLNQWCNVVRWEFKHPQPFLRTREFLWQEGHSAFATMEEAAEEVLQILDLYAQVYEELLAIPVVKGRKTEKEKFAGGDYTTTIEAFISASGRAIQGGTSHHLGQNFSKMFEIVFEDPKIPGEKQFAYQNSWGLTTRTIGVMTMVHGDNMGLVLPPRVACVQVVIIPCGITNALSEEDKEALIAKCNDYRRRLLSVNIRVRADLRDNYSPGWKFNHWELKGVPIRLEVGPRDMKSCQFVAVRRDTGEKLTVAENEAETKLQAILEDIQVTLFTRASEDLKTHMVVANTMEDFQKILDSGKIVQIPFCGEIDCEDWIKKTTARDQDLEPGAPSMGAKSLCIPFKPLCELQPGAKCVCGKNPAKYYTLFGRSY

Regarding `O=c1c2cc(Cl)c(Br)cc2ncn1C[C@@H](O)C[C@H]1NCCC[C@@H]1O` [halofuginol], the Ki was 1120 nM in test [1], 71.1 nM in test [2] and 65.7 nM in test [3].

A word on the Ki: it is the dissociation constant of the complex between target and ligand, obtained from inhibition or displacement.
